Entries after “also recorded” stand apart in the source; their conditions may differ. Ends that are not written are not given here.
Key:
[1] = tested on: WiDr, MDA-MB-435S, SW480 and LoVo; experiment: Transfection of human tumor cell lines; type: cell-based; conditions: ppTG1/plasmid pTG11236 complexes, luciferase day 1
Method: WiDr (ATCC CCL-218), MDA-MB-435S (ATCC HTB-129), SW480 (ATCC CCL-228) and LoVo cell (CCL-229) were cultivated in the appropriate medium with 10% fetal calf serum, 1% gentamycine, 1% glutamine and 3 g/l glucose, in an incubator at 37° C. and 5% CO2.
The transfection efficiencies with plasmid/ppTG1 complexes were tested in the human tumor cells WiDr, MDA-MB-435S, SW480 and LoVo (ATCC) in comparison to lipofectin, PEI and pcTG90/DOPE (1:1) [+/−] 5.

293-EBNA cells = experiment: Transfection in vitro, luciferase plasmid pTG11056; type: cell-based
Method: Cells were plated on 24 well plates at a density of 4×10^4 (293-EBNA ) or 7×10^4 (HeLa, Renca) cells/well in DMEM supplemented with 10% FCS. The next day, the medium was replaced by 200 μl serum-free DMEM and plasmid (pTG11056 or pTG11236)/peptide complexes or plasmid/peptide/lipid complexes were prepared in 30 μl 0.9% NaCl or 5% glucose. After 20 min at room temperature these complexes were added to the cells which were then incubated for 2-3 h at 37° C. and 5% CO2 before 1 ml serum-containing DMEM was added. Approximately 20-hours later, cells were lysed by addition of 100 μl 1× Promega lysis buffer, 20 μl of the lysates were analysed for luciferase activity. Proteins were quantified with the bicinchonic acid (BCA) colorimetric method (Smith, Anal. Biochem. 150 (1985), 76-85).
4×10^4 293-EBNA cells, plated on 24 well plates the day before, were transfected with 0.5 μg, 0.1 μg, 0.05 μg and 0.01 μg of the plasmid pTG11056. The plasmid was either mixed with completely or uncompletely DNA-complexing amounts of ppTG1 in 30 μl 5% glucose and after 20 min at room temperature the mixture was added to the cells which were incubated in 200 μl serum-free medium. Further, pTG11056 was formulated with the established transfection reagents Lipofectin and PEI. […] After twenty hours, cells were washed and luciferase activity was determined in ⅕ of the lysed cells.

HeLa cells = experiment: Transfection in the presence of Bafilomycin A; type: cell-based; conditions: 175 nM Bafilomycin A, 150 ng pTG11236
Method: Transfection in the presence of Bafilomycin A: 6×10^4 HeLa cells were plated on 24 well plates. Cells were treated with 175 nM Bafilomycin A 30 min before and throughout the transfection (1 h incubation of cells with transfection mix in the absence of serum).
Bafilomycin A is a specific inhibitor of the vacuolar proton pump. Treatment with Bafilomycin inhibits the acidification of late endosomes. HeLa cells were treated with Bafilomycin A (175 nM) 30 min before and throughout the transfection (1 h incubation with transfection complexes in the absence of serum). 6×10^4 cells were transfected with 150 ng pTG11236 using PEI or ppTG1. The luciferase assay was performed 1 day after transfection.

[2] = Liposome leakage assay, POPC/cholesterol 3:2 liposomes; conditions: for liposome leakage activity, in words: POPC/chol 3:2 liposomes
Method: Increasing amounts of the indicated peptides were incubated with POPC/Cholesterol (3:2 mol/mol) liposomes for 30 min at RT. Emitted fluorescence was plotted against peptide concentration. […] B) Liposome leakage activity with complexes of ppTG1 and the plasmid pTG11236 at pH7.
1-Palmitoyl-2-Oleoyl-phosphatidylcholine (POPC) liposomes were prepared by the repeated freeze-thaw method followed by extrusion (Olson et al., 1979, Biochim. Biophys. Acta 557, 19-23). Ten μ-moles of POPC in chloroform were placed in a glass tube and solvent was evaporated under reduced pressure using a Labconco Rapidvap vortex evaporator (Uniequip, Germany). The resulting lipid film was hydrated with 0.5 ml of an aqueous solution of calcein (lOOmM calcein, 3.75 eq. NaOH, 50mM NaCl). The lipid suspension was sonicated until the solution became clear using a sonic water bath (Bransonic 221, Branson Ultrasonics Corp., USA). Five cycles of freeze-thaw were performed before liposomes were extruded by 4 passages through 200 nm pore diameter polycarbonate membranes (Nuclepore, Costar, Mass., USA). Free calcein was removed from calcein encapsulated into liposomes by gel exclusion chromatography using a Sephadex G-50 column (3 cm×14 cm) and a 200 mM NaCl, 25 mM HEPES, pH 7.3 solution as the elution buffer. The final lipid concentration was determined by a phosphorus assay (Bartlett, 1959, J. Biol. Chem. 234, 466-469). Liposomes' diameter was determined by dynamic laser light scattering using a Coulter N4 Plus submicron particle sizer (Coultronics France S. A, France). Measurements were performed within a 3 nm-10000 nm size window with a fixed 90° scattered light angle.
The liposome leakage assay was carried out as described in Planck et al. (1994, J. Biol. Chem. 269, 12918-12924). The liposome stock solution was diluted to a lipid concentration of 45 μM in 1.8× assay buffer (360 mM NaCl, 36 mM sodium citrate, pH 5 and pH 7). A 1:5 serial dilution of the tested peptide was carried out in a 96-well microtiter plate by transferring 20 μl of the peptide solution from one well to the next well and diluting with 80 μl H2O. 100 μl of the liposome solution was added in each well (final lipid concentration: 25 μM) and, after 30 min at room temperature, was assayed for fluorescence at 535 nm (excitation: 485 nm) on a microtiter plate fluorescence spectrometer (WALLAC, 1420 multilabel counter Victor). These conditions are appropriate to analyze fluorescein and as close as possible to the appropriate excitation/ emission profile of calcein (495 nm /515 nm). The value for 100% leakage was obtained by addition of 1 μl of a 10% Triton X-100 solution. Leakage activity was plotted against peptide concentration.
Liposome leakage activities were analyzed on liposomes consisting of POPC and cholesterol at a molar ratio of 3:2 (mol/mol).
Complexes of ppTG1 with plasmid DNA pTG11236 were tested for liposome leakage activity on POPC/chol 3:2 liposomes.
The series of ppTG1 derivatives as they are listed in Materials and Methods was tested for liposome leakage activity on POPC/chol 3:2 liposomes at pH7.

CHO cells = experiment: Transfection in vitro, luciferase plasmid pTG11236; type: cell-based
Method: A comparison of ppTG1 and KALA was carried out in HeLa and CHO cells. 5×10^4 cells were seeded on 24 well plates. The next day, cells were transfected with 500 ng and 50 ng of pTG11236, complexed with ppTG1 or KALA in 30 μl 0.9% NaCl. The charge ratio +/− varied from 1, 2, 3, 4, 7 to 10. Cells were harvested 20 h after transfection and lysis was obtained in 100 μl Promega lysis buffer. Luciferase activity and total protein concentrations in 20 μl were determined.

With GLFKALLKLLKSLWKLLLKA the “transfection of human tumor cell lines” value [1] was “successfully transfected; also recorded: can efficiently transfect human tumor cell lines, especially SW480 cells”, the transfection efficiency (293-EBNA cells; 0.05 μg pTG11056 mixed with 0.065 μg ppTG1, charge ratio around 1) was “still showed high transfection efficiency” and the luciferase activities (293-EBNA cells; 0.5 μg pTG11056 complexed with 0.65 μg ppTG1, charge ratio around 1) was “higher than those observed with complexes formed with Lipofectin or PEI”. The “effect of Bafilomycin A on transfection efficiency” value (HeLa cells) was “not diminished; also recorded: did not influence the transfection efficiency”, the “liposome leakage activity, in words” value ([2]; pH5) was “could efficiently liberate calcein” and the “liposome leakage activity, in words” value ([2]; pH7) was “could efficiently liberate calcein”. The “liposome leakage of peptide/plasmid complexes” value ([2]; complexed with pTG11236, P/N 5 or 10, pH7) was “comparable to free ppTG1”, the “liposome leakage of peptide/plasmid complexes” value ([2]; complexed with pTG11236, P/N of 1 or 0.8, pH7) was “slightly reduced” and the “destabilization of POPC/Chol liposomes” value ([2]; peptide alone or complexed with plasmid DNA, summary) was “destabilizes efficiently”. The “more efficient than the complex comprising KALA, best case” value (CHO cells) was 2500 fold, the “more efficient in gene transfer than KALA” value (CHO cells; 50 ng pTG11236, optimum charge ratios) was 68 fold and the “more efficient in gene transfer than KALA” value (CHO cells; 500 ng pTG11236, optimum charge ratios) was 9 fold.
